# Target: D(2) dopamine receptor (Homo sapiens, UniProt P14416)
# Sequence (P14416 whole entry): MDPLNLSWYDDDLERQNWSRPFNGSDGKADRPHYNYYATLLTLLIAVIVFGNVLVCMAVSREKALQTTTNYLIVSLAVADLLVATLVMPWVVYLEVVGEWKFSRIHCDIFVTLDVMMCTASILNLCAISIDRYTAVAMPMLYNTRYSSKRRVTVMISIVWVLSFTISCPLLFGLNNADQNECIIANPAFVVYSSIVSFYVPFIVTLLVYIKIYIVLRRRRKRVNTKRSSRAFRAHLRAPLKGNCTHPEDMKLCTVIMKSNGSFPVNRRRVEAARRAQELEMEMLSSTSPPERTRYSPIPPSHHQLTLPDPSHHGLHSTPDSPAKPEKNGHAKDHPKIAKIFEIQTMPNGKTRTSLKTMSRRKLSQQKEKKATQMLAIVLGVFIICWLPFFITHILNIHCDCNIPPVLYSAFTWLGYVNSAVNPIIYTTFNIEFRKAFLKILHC
smiles,measurement,value
CN1CCN2c3ccccc3Cc3ccccc3[C@H]2C1 [MIANSERIN (+)],Ki,2680 nM

# From BindingDB's records for doi:10.1073/pnas.86.24.9762 (Oregon Health Sciences University, 1989)
